According to US12220440B2, “Drug composition, method for treating infection, disinfecting composition, and drug adjuvant” (priority 2022, dated 2025):
In brackets after ≈: the same amount, converted by molar mass. Read-outs that look alike come from different tables or passages of the source. Peptide text beside a SMILES is read from it.

What was measured:
Type in all cases: cell-based
[1] = test system: mcr-1-bearing E. coli J53; test: Ca2+ / Mg2+ MIC-dependency in cation-supplemented MHB; settings: 37° C., 16 hours
Method: Accordingly, the effect of divalent ions on the antibacterial activity of otilonium bromide and colistin is investigated. […] For FIGS. 5a-5b, E. coli J53 expressing MCR-1 is treated with colistin and colistin+Ob as indicated in Mueller Hinton II Broth (MHB) that is cation-adjusted; i.e., supplemented with different concentrations of Mg^2+ and Ca^2+ ions). The incubation is conducted at 37° C. for 16 hours.

[2] = test system: mcr-1-bearing E. coli J53; test: microbe, parasite or virus in culture; settings: 20 μg/ml of otilonium bromide
Excerpt: E. coli J53 strain carrying a natural mcr-1-bearing IncI2 plasmid (33 kb, KX711706.1) is used to screen and identify colistin adjuvants which could enhance the antibacterial activity of colistin.

A. baumannii 17978 = test: Killing of starvation-induced tolerant cells; settings: with otilonium bromide, 24-hour treatment
Method: (§1) Starvation-induced bacterial sub-population tolerant cells of colistin-resistant and colistin-susceptible E. coli and A. baumannii strains are tested against the bactericidal effect of the combination of otilonium bromide and colistin. […] The incubation temperature is 37° C. Ob and colistin are added at the same time.

[3] = test system: colistin-susceptible E. coli J53; test: Killing of starvation-induced tolerant cells; settings: with otilonium bromide, 24-hour treatment
Method: as §1

E. coli J53 = test: MIC checkerboard dilution assay, otilonium bromide vs. colistin; settings: Escherichia coli
E. coli Bw25113 = test: MIC, colistin-susceptible E. coli, with and without otilonium bromide; settings: Escherichia coli
mcr-1-bearing E. coli = test: LIVE/DEAD cell viability assay, fluorescence microscopy; settings: 8 μg/ml of colistin alone
Method: Fluorescence microscopy quantifies the number of live and dead cells and determines the degree of reduction in colistin concentration in the drug combination required for effective eradication of the test organism. […] However, in the presence of 20 μg/ml of otilonium bromide, 4 μg/ml of colistin eradicates >97% of the bacteria.

CCC(C)CCCC(=O)N[C@@H](CCN)C(=O)N[C@H](C(=O)N[C@@H](CCN)C(=O)N[C@H]1CCNC(=O)[C@H]([C@@H](C)O)NC(=O)[C@H](CCN)NC(=O)[C@H](CCN)NC(=O)[C@H](CC(C)C)NC(=O)[C@@H](CC(C)C)NC(=O)[C@H](CCN)NC1=O)[C@@H](C)O (stereo partly drawn) [Colistin] (HELM PEPTIDE1{[CCC(C)CCCC(=O)[*:2]].[Dab].T.[Dab].[Dab].[Dab].[dL].L.[Dab].[Dab].T}$PEPTIDE1,PEPTIDE1,5:R3-11:R2$$$V2.0)
effect of supplemented Ca2+ and Mg2+ on MIC [1]: increase the MIC
MIC ([2]; Escherichia coli, read-out: colistin MIC (minimum inhibitory concentration), mcr-1-bearing E. coli J53): 0.28 µg/mL (≈ 0.242 µM)
reduction in colistin MIC ([2]; mcr-1-bearing E. coli J53): 32 fold
concentration of colistin required to completely eradicate tolerant sub-population (A. baumannii 17978): 1 µg/mL
concentration of colistin required to completely eradicate tolerant sub-population [3]: 1 µg/mL
MIC (E. coli J53; 10 μg/ml of otilonium bromide): ≤ 0.016 µg/mL
MIC (E. coli J53; colistin alone): 1 µg/mL
MIC (E. coli Bw25113; colistin alone, read-out: Colistin MIC, Colistin): 2 µg/mL (≈ 1.73 µM)
MIC (E. coli Bw25113; in the presence of 10 ug/ml Ob, read-out: Colistin MIC, Colistin + 10 ug/ml Ob): 0.03 µg/mL
MIC (E. coli Bw25113; in the presence of 20 ug/ml Ob, read-out: Colistin MIC, Colistin + 20 ug/ml Ob): ≤ 0.015 µg/mL
live/dead state of cells (mcr-1-bearing E. coli): most or all mcr-1-bearing E. coli strains were alive
